Test results as given in PubChem BioAssay (NCI).
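Five compound concentrations were applied to cells in 96-well plates for 48 hours; endpoints were derived by simple linear interpolation of the resulting dose-response curve. GI50 marks 50% less growth. TGI: concentration producing complete growth inhibition.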

How the values were obtained:
Test in all cases: inhibition of tumour cell growth, NCI panel, 48 h
[1] = system: RPMI-8226 leukemia
[2] = system: CCRF-CEM leukemia
[3] = system: SK-OV-3 ovarian
[4] = system: OVCAR-3 ovarian
[5] = system: MOLT-4 leukemia
[6] = system: NCI-H522 lung
[7] = system: COLO 205 colon
[8] = system: NCI-H460 lung
[9] = system: CAKI-1 renal
[10] = system: MDA-MB-435

Structure (SMILES)	TGI [1]	TGI [2]	TGI [3]	TGI [4]	TGI [5]	TGI [6]	TGI [7]	TGI [8]	TGI [9]	GI50 [1]	GI50 [2]	GI50 [10]	TGI [10]	GI50 [5]	GI50 [6]	GI50 [7]	GI50 [8]
C[N+](C)(C)CC(=O)N/N=C(/Cc1nc2c3c(ccc2[nH]c1=O)C(=O)c1ccccc1C3=O)C(=O)Nc1ccc(Cl)c(Cl)c1	> 100 µM	> 100 µM	> 100 µM	> 100 µM	> 100 µM	> 100 µM	> 100 µM	> 100 µM	87 µM								
Nc1cc2cccc[n+]2c2cc(Cl)ccc12	29.9 µM	35.3 µM				33 µM		49.6 µM		2.86 µM	3.23 µM	15.7 µM	48.7 µM	4.22 µM	11.8 µM	11.8 µM	18 µM
Cc1ccc(C(=O)O/N=C2/CCC/C2=C\c2ccccc2)cc1	> 100 µM	> 100 µM	> 100 µM	> 100 µM	> 100 µM	> 100 µM	> 100 µM	> 100 µM	> 100 µM								
COC(=O)c1csnn1	> 100 µM	> 100 µM	> 100 µM	> 100 µM	> 100 µM	> 100 µM	> 100 µM	> 100 µM									
CC(C)C(=O)Nc1nc2nc[nH]c2c(=O)[nH]1	> 100 µM	> 100 µM	> 100 µM	> 100 µM	> 100 µM	> 100 µM	> 100 µM	> 100 µM	> 100 µM								
COC(=O)CCC(NC(=S)N/N=C(\C)c1nccs1)C(=O)OC (centres undefined)	> 100 µM		> 100 µM	> 100 µM		78.4 µM	34.1 µM	> 100 µM									
CN(C)/C=C/c1nnc([N+](=O)[O-])s1			55.2 µM	7.58 µM		3.27 µM	10.3 µM	33.1 µM	40.5 µM				14.2 µM				
O=Cc1cn(C(=O)c2ccccc2)c2ccccc12	> 100 µM	> 100 µM	> 100 µM	> 100 µM	> 100 µM			> 100 µM	> 100 µM								
CC1(C)SC2C(NC(=O)C(N)c3ccccc3)C(=O)N2C1C(=O)O (centres undefined)	> 100 µM	> 100 µM		> 100 µM	> 100 µM	> 100 µM	> 100 µM	> 100 µM	> 100 µM				> 100 µM				
CCCCCCCCCc1cc(=O)c2ccc(OCc3ccccc3)cc2o1		> 100 µM	> 100 µM	> 100 µM		> 100 µM	> 100 µM	> 100 µM	13.4 µM								
O=C(O)c1ccc([Se][Se]c2ccc(C(=O)O)cc2)cc1	91.7 µM			42.9 µM		52 µM	74 µM	54.9 µM	36.7 µM								
O=c1c2c([nH]c3cc4c(cc13)OCO4)-c1ccccc1CC2	> 100 µM	> 100 µM		> 100 µM	> 100 µM		> 100 µM	> 100 µM									
O=C(Cn1ccc(=O)[nH]c1=O)Nc1ccc(C(=O)O)c(O)c1	> 100 µM	> 100 µM		> 100 µM	> 100 µM	> 100 µM	> 100 µM	> 100 µM	> 100 µM				> 100 µM				
